Source: patent US6613322B2, “Method for treating a subject suffering from conditions associated with an extracellular zinc sphingomyelinase” (The Trustees of Columbia University in the City of New York, priority 1997, dated 2003)

Tests used:
S-SMase = target: T1, S-SMase (Homo sapiens, UniProt P17405); assay: SMase assay of endothelial cell (HUVEC) conditioned medium; assay type: biochemical; design: endogenous in cells; host or cells: primary HUVEC, 24-h serum-free conditioned medium
T1 sequence (P17405 47-631): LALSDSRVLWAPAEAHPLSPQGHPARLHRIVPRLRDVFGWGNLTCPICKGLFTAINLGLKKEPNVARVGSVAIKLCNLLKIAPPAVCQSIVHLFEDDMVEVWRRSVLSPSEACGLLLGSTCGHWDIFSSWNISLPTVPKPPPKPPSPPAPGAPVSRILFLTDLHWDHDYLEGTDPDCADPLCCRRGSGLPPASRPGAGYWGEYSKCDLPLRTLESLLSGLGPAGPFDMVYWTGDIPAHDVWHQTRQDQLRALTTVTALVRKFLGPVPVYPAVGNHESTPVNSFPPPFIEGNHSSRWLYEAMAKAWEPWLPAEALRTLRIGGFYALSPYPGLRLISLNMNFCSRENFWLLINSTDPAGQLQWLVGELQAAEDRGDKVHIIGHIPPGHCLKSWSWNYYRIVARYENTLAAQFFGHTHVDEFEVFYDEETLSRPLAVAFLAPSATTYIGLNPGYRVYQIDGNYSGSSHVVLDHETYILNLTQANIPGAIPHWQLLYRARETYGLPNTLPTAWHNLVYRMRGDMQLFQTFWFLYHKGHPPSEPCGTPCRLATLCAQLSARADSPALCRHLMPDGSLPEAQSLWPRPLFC
Procedure: FIGS. 20A-B. Cultured human endothelial cells secrete abundant amounts of S-SMase.
Smase Assay—As previously described (15), the standard 200-μl assay mixture consisted of up to 40 μl of sample (conditioned media or homogenized cells; see above, and a volume of assay buffer (0.1 M sodium acetate, pH 5.0) to bring the volume to 160 μl. The reaction was initiated by the addition of 40 μl substrate (50 pmol [^3H]sphingomyelin) in 0.25 M sucrose containing 3% Triton X-100 (final concentration of Triton X-100 in the 200-μl assay mix=0.6%). When added, the final concentrations of EDTA and Zn^2+ were 5 mM and 0.1 mM, respectively, unless indicated otherwise. The assay mixtures were incubated at 37° C. for no longer than 3 h and then extracted by the method of Bligh and Dyer (37); the lower, organic phase was harvested, evaporated under N2, and fractionated by TLC using chloroform:methanol (95:5). The ceramide spots were scraped and directly counted to quantify [^3H]ceramide. Typically, our assay reactions contained approximately 20 μg of cellular homogenate protein and a volume of conditioned media derived from a quantity of cells equivalent to approximately 50 μg of cellular protein.

L-SMase of HUVECs = assay: Cytokine regulation of L-SMase activity in HUVEC cell homogenates; assay type: cell-based, human; conditions: cytokine-treated endothelial cells
Procedure: FIGS. 23A-B. Cytokine regulation of S- and L-SMase of HUVECs. […] Conditioned media (FIG. 23A) and cell homogenates (FIG. 23B) from these cells were then assayed for SMase activity in the presence or absence of 0.1 mM ZnCl2, respectively.
Cells—Primary cultures of HUVEC were obtained from fresh umbilical cords and maintained in cell culture as previously described (31). Human coronary artery endothelial cells from a donor were purchased from Clonetics Corp. (San Diego, Calif.; cat. # CC-2585, Strain #3033). The cells were grown in endothelial basal media (EBM) (Clonetics) supplemented with 10% HI-FES; 10 μg endothelial cell growth supplement/ml (Sigma; cat. # E0760) and 50 μg gentamicin/ml. Primary cultures of bovine aortic endothelial, cells were established and subcultured as described previously (32). […]

| Molecule | stimulation of SMase secreted by endothelial cells by exogenous Zn2+ (S-SMase) | increase of enzymatic activity of S-SMase by Zn2+ (S-SMase; S-SMase from IL-1β-treated HUVECs) | increase of enzymatic activity of S-SMase by Zn2+ (S-SMase; S-SMase from untreated HUVECs) | L-SMase (lysosomal SMase) activity (L-SMase of HUVECs) |
| --- | --- | --- | --- | --- |
| [Cl-].[Cl-].[Zn+2] [Zn^2+, ZnCl2] | two-fold | 1.77±0.03 fold | 1.78±0.17 fold | – |
| IL-1β: human recombinant interleukin-1β | – | – | – | decreased |
